According to ChEMBL document CHEMBL1201862, “PubChem BioAssay data set” (2004):
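Five compound concentrations were applied to cells in 96-well plates for 48 hours; endpoints were derived by simple linear interpolation of the resulting dose-response curve. GI50 marks 50% less growth.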 Active and inactive are the calls of the source. No stated cut-off is given here; in the data, active = GI50 up to about 1.1 µM and inactive = higher.

Experiments:
Experiment in all cases: NCI tumour cell line growth inhibition, 48 h
[1] = tested on: HCC 2998
[2] = tested on: SN12C
[3] = tested on: OVCAR-4
[4] = tested on: HT-29
[5] = tested on: HCT-116
[6] = tested on: U-251
[7] = tested on: UACC-257
[8] = tested on: SF-539
[9] = tested on: Hs-578T
[10] = tested on: A549
[11] = tested on: T47D
[12] = tested on: UACC-62
[13] = tested on: MDA-MB-231
[14] = tested on: CCRF-CEM
[15] = tested on: HOP-62
[16] = tested on: SK-OV-3
[17] = tested on: MCF7
[18] = tested on: LOX IMVI
[19] = tested on: HOP-92
[20] = tested on: Malme-3M
[21] = tested on: SK-MEL-5
[22] = tested on: SNB-19
[23] = tested on: IGROV-1
[24] = tested on: 786-0
[25] = tested on: NCI-H460
[26] = tested on: PC-3
[27] = tested on: COLO 205
[28] = tested on: MDA-N
[29] = tested on: RXF 393
[30] = tested on: KM12
[31] = tested on: ACHN
[32] = tested on: A498
[33] = tested on: MOLT-4
[34] = tested on: OVCAR-5
[35] = tested on: SR
[36] = tested on: M14
[37] = tested on: SF-268
[38] = tested on: NCI/ADR-RES
[39] = tested on: EKVX
[40] = tested on: HCT-15
[41] = tested on: SNB-75
[42] = tested on: SK-MEL-28
[43] = tested on: BT-549
[44] = tested on: SF-295
[45] = tested on: DU-145
[46] = tested on: TK-10
[47] = tested on: MDA-MB-435
[48] = tested on: NCI-H23
[49] = tested on: CAKI-1
[50] = tested on: SW-620
[51] = tested on: K562
[52] = tested on: OVCAR-3
[53] = tested on: NCI-H522
[54] = tested on: SK-MEL-2
[55] = tested on: HL-60
[56] = tested on: OVCAR-8
[57] = tested on: UO-31
[58] = tested on: NCI-H226

SMILES: CC(C)[Si](OC1=CCC[C@H]2NC(=O)[C@@H](Cc3ccccc3)[C@@]12C)(C(C)C)C(C)C
- GI50 [1]: 2.18 µM (inactive)
- GI50 [2]: 3.23 µM (inactive)
- GI50 [3]: 5.25 µM (inactive)
- GI50 [4]: 3.43 µM (inactive)
- GI50 [5]: 3.6 µM (inactive)
- GI50 [6]: 3.62 µM (inactive)
- GI50 [7]: 4.54 µM (inactive)
- GI50 [8]: 5.74 µM (inactive)
- GI50 [9]: 4.67 µM (inactive)
- GI50 [10]: 2.98 µM (inactive)
- GI50 [11]: 2.79 µM (inactive)
- GI50 [12]: 8.95 µM (inactive)
- GI50 [13]: 12.6 µM (inactive)
- GI50 [14]: 2.85 µM (inactive)
- GI50 [15]: 11.9 µM (inactive)
- GI50 [16]: 5.93 µM (inactive)
- GI50 [17]: 3.55 µM (inactive)
- GI50 [18]: 3.03 µM (inactive)
- GI50 [19]: 2.32 µM (inactive)
- GI50 [20]: 12.8 µM (inactive)
- GI50 [21]: 3.37 µM (inactive)
- GI50 [22]: 10 µM (inactive)
- GI50 [23]: 10.9 µM (inactive)
- GI50 [24]: 3.94 µM (inactive)
- GI50 [25]: 3.52 µM (inactive)
- GI50 [26]: 3.37 µM (inactive)
- GI50 [27]: 2.33 µM (inactive)
- GI50 [28]: 3.95 µM (inactive)
- GI50 [29]: 4.16 µM (inactive)
- GI50 [30]: 3.84 µM (inactive)
- GI50 [31]: 1.89 µM (inactive)
- GI50 [32]: 5.79 µM (inactive)
- GI50 [33]: 3.89 µM (inactive)
- GI50 [34]: 9.44 µM (inactive)
- GI50 [35]: 2.62 µM (inactive)
- GI50 [36]: 11.2 µM (inactive)
- GI50 [37]: 12.1 µM (inactive)
- GI50 [38]: 6.49 µM (inactive)
- GI50 [39]: 3.74 µM (inactive)
- GI50 [40]: 4.09 µM
- GI50 [41]: 15.4 µM (inactive)
- GI50 [42]: 4.11 µM (inactive)
- GI50 [43]: 10.8 µM (inactive)
- GI50 [44]: 4.85 µM (inactive)
- GI50 [45]: 10.2 µM (inactive)
- GI50 [46]: 9.98 µM (inactive)
- GI50 [47]: 4.04 µM (inactive)
- GI50 [48]: 4.98 µM (inactive)
- GI50 [49]: 3.85 µM (inactive)
- GI50 [50]: 2.72 µM (inactive)
- GI50 [51]: 3.2 µM (inactive)
- GI50 [52]: 5.79 µM (inactive)
- GI50 [53]: 3.46 µM (inactive)
- GI50 [54]: 14.2 µM (inactive)
- GI50 [55]: 2.86 µM (inactive)
- GI50 [56]: 11.4 µM (inactive)
- GI50 [57]: 10.1 µM (inactive)

SMILES: Cc1c[nH]c(C(=O)O)c1-c1ccc2c(-c3ccccc3)nc3ccccc3n12
- GI50 [1]: 13.7 µM (inactive)
- GI50 [2]: 30.7 µM (inactive)
- GI50 [3]: 41 µM (inactive)
- GI50 [4]: 22.8 µM (inactive)
- GI50 [5]: 34.8 µM (inactive)
- GI50 [6]: 48.3 µM (inactive)
- GI50 [7]: 30.8 µM (inactive)
- GI50 [8]: 19.5 µM (inactive)
- GI50 [9]: 18.6 µM (inactive)
- GI50 [10]: 33.7 µM (inactive)
- GI50 [11]: 37.2 µM (inactive)
- GI50 [12]: 20.7 µM (inactive)
- GI50 [13]: 32.9 µM (inactive)
- GI50 [14]: 36.3 µM (inactive)
- GI50 [15]: 15.7 µM (inactive)
- GI50 [16]: 32.1 µM (inactive)
- GI50 [17]: 34 µM (inactive)
- GI50 [18]: 27.1 µM (inactive)
- GI50 [19]: 32.9 µM (inactive)
- GI50 [58]: 20.3 µM (inactive)
- GI50 [21]: 30.5 µM (inactive)
- GI50 [23]: 22.9 µM (inactive)
- GI50 [24]: 33.3 µM (inactive)
- GI50 [25]: 22.9 µM (inactive)
- GI50 [26]: 27.4 µM (inactive)
- GI50 [27]: 39.4 µM (inactive)
- GI50 [28]: 19 µM (inactive)
- GI50 [29]: 18.2 µM (inactive)
- GI50 [30]: 20 µM (inactive)
- GI50 [31]: 52.4 µM (inactive)
- GI50 [32]: 13.9 µM (inactive)
- GI50 [33]: 34.2 µM (inactive)
- GI50 [34]: 36 µM (inactive)
- GI50 [35]: 33 µM (inactive)
- GI50 [36]: 31.7 µM (inactive)
- GI50 [37]: 28.2 µM (inactive)
- GI50 [38]: 17.2 µM (inactive)
- GI50 [39]: 20.5 µM (inactive)
- GI50 [40]: 30 µM
- GI50 [41]: 17.5 µM (inactive)
- GI50 [42]: 31.4 µM (inactive)
- GI50 [43]: 30.6 µM (inactive)
- GI50 [44]: 22.7 µM (inactive)
- GI50 [45]: 36.7 µM (inactive)
- GI50 [46]: 29.2 µM (inactive)
- GI50 [47]: 23.2 µM (inactive)
- GI50 [48]: 35.4 µM (inactive)
- GI50 [49]: 34.7 µM (inactive)
- GI50 [50]: 41.2 µM (inactive)
- GI50 [51]: 41.5 µM (inactive)
- GI50 [52]: 16.4 µM (inactive)
- GI50 [53]: 20.9 µM (inactive)
- GI50 [54]: 20.7 µM (inactive)
- GI50 [56]: 22.6 µM (inactive)
- GI50 [57]: 34.4 µM (inactive)
